# Measurements from the supplement of paper PMC10307832.
# Experiments:
# Test in all cases: relative viability (nuclei count vs DMSO), 5 days (fraction); higher = more cells survive
# [1] = compound: Nc1ccccc1NC(=O)c1ccc(CNC(=O)OCc2cccnc2)cc1 [Entinostat] + Cc1nc(Nc2ncc(C(=O)Nc3c(C)cccc3Cl)s2)cc(N2CCN(CCO)CC2)n1 [Dasatinib] (partner 0.075 µM)
# Outline: (§1)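 One day after seeding in 1536-well plates, lung cancer cell lines were dosed by pin tool. Dosing was either single-drug or a fixed anchor-drug dose plus five library-drug doses (not always all listed) in √10 steps. After 5 days, nuclei were stained in one fix-and-stain step and counted on 4× images, and relative viability is the nuclei count of treated wells over that of vehicle wells, given as the median of duplicate plates.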
# [2] = compound: Nc1ccccc1NC(=O)c1ccc(CNC(=O)OCc2cccnc2)cc1 [Entinostat] + Cc1cc(Nc2cc(N3CCN(C)CC3)nc(Sc3ccc(NC(=O)C4CC4)cc3)n2)n[nH]1 [Tozasertib] (partner 0.1 µM)
# Outline: as §1
# [3] = compound: CN1CCC(CNc2ccc3ncc(-c4cccc(OC(F)(F)F)c4)n3n2)CC1 [SGI-1776] + O=C(CCCCCCC(=O)Nc1ccccc1)NO [Vorinostat] (partner 1 µM)
# Outline: as §1
# [4] = compound: CN1CCC(CNc2ccc3ncc(-c4cccc(OC(F)(F)F)c4)n3n2)CC1 [SGI-1776] + Cc1nc(NC(=O)N2CCC[C@H]2C(N)=O)sc1-c1ccnc(C(C)(C)C(F)(F)F)c1 [Alpelisib] (partner 2 µM)
# Outline: as §1
Cell Line,relative viability ([1]; first compound 0.02 µM),relative viability ([1]; first compound 0.06325 µM),relative viability ([1]; first compound 0.2 µM),relative viability ([1]; first compound 0.6325 µM),relative viability ([1]; first compound 2 µM),relative viability ([2]; first compound 0.02 µM),relative viability ([2]; first compound 0.06325 µM),relative viability ([2]; first compound 0.2 µM),relative viability ([2]; first compound 0.6325 µM),relative viability ([2]; first compound 2 µM),relative viability ([3]; first compound 0.08 µM),relative viability ([3]; first compound 0.8 µM),relative viability ([3]; first compound 2.53 µM),relative viability ([3]; first compound 8 µM),relative viability ([4]; first compound 0.08 µM),relative viability ([4]; first compound 0.8 µM),relative viability ([4]; first compound 2.53 µM),relative viability ([4]; first compound 8 µM)
SW 900,0.795,0.589,0.661,0.444,0.248,0.573,0.62,0.515,0.282,0.206,0.506,0.752,0.651,0.361,–,–,–,–
NCI-H1944,0.226,0.205,0.199,0.17,0.175,0.224,0.215,0.204,0.162,0.132,0.584,0.646,0.553,0.477,0.877,0.752,0.807,0.649
NCI-H838,0.424,0.324,0.455,0.469,0.258,0.287,0.261,0.239,0.146,0.127,0.794,0.697,0.676,0.522,1.1,1.01,0.95,0.874
NCI-H1651,0.447,0.527,0.402,0.338,0.192,0.619,0.705,0.584,0.333,0.237,0.605,0.648,0.563,0.416,0.97,0.957,0.834,0.752
HCC-827,0.255,0.269,0.23,0.227,0.294,0.425,0.406,0.335,0.302,0.184,0.865,0.908,0.858,0.806,1.08,0.993,1.06,0.849
HCC-366,0.679,0.663,0.527,0.512,0.196,0.0983,0.0503,0.0518,0.0518,0.0252,0.462,0.418,0.392,0.266,0.51,0.335,0.372,0.189
HARA,0.299,0.256,0.256,0.273,0.168,0.121,0.123,0.138,0.117,0.0945,0.497,0.515,0.559,0.438,1.01,0.935,0.803,0.678
NCI-H441,0.705,0.602,0.557,0.259,0.124,0.593,0.483,0.425,0.275,0.224,0.929,0.761,0.867,0.658,0.751,0.478,0.697,0.588
NCI-H1299,–,–,–,–,–,–,–,–,–,–,–,–,–,–,1.11,1.01,1.07,1.08
RERF-LC-KJ,0.82,0.656,0.731,0.374,0.237,0.417,0.4,0.349,0.215,0.198,0.694,0.745,0.686,0.48,0.805,0.844,0.926,0.666
CAL-12T,0.571,0.427,0.375,0.295,0.218,0.284,0.364,0.319,0.186,0.206,0.794,0.876,0.723,0.699,1.23,1.37,1.66,1.08
COR-L 105,0.337,0.407,0.36,0.344,0.232,0.372,0.291,0.309,0.273,0.286,0.921,0.885,0.935,0.642,1.13,1.05,1.03,0.759
NCI-H2405,0.239,0.208,0.217,0.182,0.129,0.736,0.78,0.607,0.524,0.319,1.06,1.16,0.896,0.748,0.865,0.766,0.739,0.383
NCI-H2228,0.446,0.358,0.3,0.208,0.126,0.258,0.142,0.207,0.0934,0.11,0.613,0.884,0.679,0.429,0.776,0.636,0.727,0.239
PC-14,0.236,0.261,0.217,0.118,0.0579,0.56,0.629,0.325,0.104,0.0609,0.798,0.784,0.771,0.0624,1.12,0.956,0.976,0.757
IA-LM,–,–,–,–,–,–,–,–,–,–,0.956,0.914,0.922,0.926,0.883,0.977,0.764,0.874
A549,–,–,–,–,–,–,–,–,–,–,–,–,–,–,0.787,0.701,0.852,0.394
NCI-H2342,0.305,0.319,0.291,0.274,0.278,0.465,0.429,0.377,0.372,0.333,0.78,0.723,0.707,0.799,–,–,–,–
NCI-H1623,0.644,0.525,0.478,0.412,0.366,0.498,0.442,0.373,0.352,0.305,–,–,–,–,–,–,–,–
SW 1573,0.532,0.518,0.711,0.627,0.454,0.237,0.186,0.242,0.179,0.164,1.12,0.461,0.607,0.312,0.666,0.763,0.906,0.581
NCI-H2087,1,0.837,0.711,0.373,0.204,0.222,0.219,0.177,0.116,0.0873,0.927,0.783,0.443,0.773,1.1,1.06,1.18,0.997
NCI-H520,0.248,0.335,0.238,0.325,0.286,0.47,0.441,0.38,0.331,0.325,0.711,0.779,0.797,0.561,0.928,0.94,0.914,0.759

Cell Line,relative viability ([1]; first compound 0.02 µM),relative viability ([1]; first compound 0.06325 µM),relative viability ([1]; first compound 0.2 µM),relative viability ([1]; first compound 0.6325 µM),relative viability ([1]; first compound 2 µM),relative viability ([2]; first compound 0.02 µM),relative viability ([2]; first compound 0.06325 µM),relative viability ([2]; first compound 0.2 µM),relative viability ([2]; first compound 0.6325 µM),relative viability ([2]; first compound 2 µM),relative viability ([3]; first compound 0.08 µM),relative viability ([3]; first compound 0.8 µM),relative viability ([3]; first compound 2.53 µM),relative viability ([3]; first compound 8 µM),relative viability ([4]; first compound 0.08 µM),relative viability ([4]; first compound 0.8 µM),relative viability ([4]; first compound 2.53 µM),relative viability ([4]; first compound 8 µM)
Calu-6,–,–,–,–,–,–,–,–,–,–,–,–,–,–,1.01,0.955,1.23,0.628
SK-LU-1,0.186,0.237,0.186,0.199,0.147,0.335,0.337,0.278,0.182,0.169,0.892,0.803,0.697,0.648,1.02,1.01,0.816,0.406
LCLC-97TM1,0.882,0.646,0.748,0.782,0.615,0.218,0.213,0.192,0.177,0.167,0.777,0.842,0.79,0.727,0.195,0.238,0.239,0.22
HCC-15,0.664,0.749,0.595,0.33,0.178,0.306,0.346,0.258,0.0932,0.0635,0.856,0.853,0.726,0.722,0.912,0.836,0.895,0.71
H3255,0.397,0.37,0.27,0.32,0.265,0.48,0.468,0.503,0.315,0.204,0.904,0.919,0.815,0.718,0.65,0.747,0.611,0.38
NCI-H1915,0.336,0.27,0.238,0.173,0.151,0.446,0.385,0.338,0.267,0.212,0.51,0.555,0.492,0.449,1.09,1.12,1.11,1.03
NCI-H1650,0.385,0.354,0.407,0.284,0.212,0.336,0.366,0.332,0.223,0.204,0.848,0.621,0.521,0.423,–,–,–,–
NCI-H647,0.197,0.133,0.144,0.0844,0.064,0.32,0.214,0.228,0.0707,0.0371,0.539,0.61,0.604,0.322,1.31,1.15,1.1,0.558
NCI-H2126,0.615,0.545,0.443,0.349,0.268,0.812,0.758,0.614,0.38,0.262,0.709,0.801,0.77,0.698,0.735,0.733,0.751,0.676
NCI-H727,0.475,0.419,0.412,0.219,0.273,0.605,0.647,0.497,0.392,0.403,1.26,1.11,1.39,0.983,0.75,0.532,0.655,0.538
NCI-H522,0.882,1.14,1.16,1.23,0.795,0.576,0.509,0.516,0.48,0.371,0.92,0.896,0.903,0.858,–,–,–,–
EMC-BAC-2,0.349,0.318,0.298,0.177,0.109,0.302,0.254,0.228,0.17,0.229,0.551,0.593,0.424,0.298,0.741,0.703,0.802,0.723
NCI-H1437,0.434,0.423,0.188,0.137,0.126,0.31,0.253,0.181,0.132,0.108,0.84,0.857,0.798,0.702,0.867,0.961,0.99,0.634
NCI-H2347,0.325,0.328,0.196,0.193,0.205,0.355,0.382,0.345,0.175,0.18,0.598,0.622,0.588,0.496,1.1,1.07,1.1,1.01
HCC-44,–,–,–,–,–,0.898,0.581,0.553,0.309,0.221,1.16,1.05,1.12,1.01,0.88,0.876,0.733,0.571
ChaGo-K-1,0.709,0.554,0.671,0.526,0.553,0.256,0.227,0.211,0.197,0.19,0.788,0.825,0.797,0.73,–,–,–,–
NCI-H1648,–,–,–,–,–,0.566,0.483,0.414,0.411,0.341,0.476,0.555,0.294,0.39,–,–,–,–
NCI-H1792,0.692,0.802,0.825,0.452,0.402,–,–,–,–,–,–,–,–,–,0.765,0.663,0.696,0.552
NCI-H1703,–,–,–,–,–,–,–,–,–,–,–,–,–,–,0.367,0.312,0.299,0.165
EBC-1,–,–,–,–,–,–,–,–,–,–,–,–,–,–,0.888,0.78,0.903,0.434
NCI-H1563,0.465,0.48,0.438,0.461,0.42,–,–,–,–,–,–,–,–,–,0.928,1,0.874,0.695
